Reference: patent publication US20090220996A1, “In vitro Assay Methods for Classifying Embryotoxicity of Compounds” (RELIANCE LIFE SCIENCES PVT LTD., priority 2007, published 2009)
In brackets after ≈: the same amount, converted by molar mass. Where two headings read alike, the source gives them in different places.

Experiments:
[1] = tested on: human embryoid bodies (hEBs); assay: Morphological evaluation of embryoid bodies (photomicrographs); format: cell-based; conditions: for morphology of treated hEBs compared to controls: day 7, 10 μg/ml (FIG. 4E-c, 4F-c); for concentration required to elicit a similar morphological response (loss of compactness, decreased EB size): day 7 hEBs, FIG. 4A-4D
Experimental: Hanging drops were made in hES media with LIF and bFGF for calculating IC50-hES cells, and in hES media without LIF and bFGF (hEB media) for the formation of EBs. On day 3 the hES colonies were collected along with the respective test compound concentration, whereas the hEBs were collected and transferred to 60 mm bacteriological petri plates for another 2 days. Morphology of the EBs was monitored under the microscope for the formation of EBs. On day 5 the hEBs were plated in a 96 well plate for MTT, as well as on a 6 well plate for RNA extraction. The media along with the appropriate test compound concentration was replaced in the 96 well and 6 well plates on days 7, 9, 11, and 13. On day 15, MTT was performed on the hES plate and the differentiated EBs. RNA was extracted from all the concentrations of 5-fluorouracil, and 1 μg of RNA was converted to cDNA to perform RT-PCR, real time PCR, or TLDA.

[2] = tested on: human embryonic stem cells (hES); assay: Cytotoxicity in undifferentiated human embryonic stem cells, day 15 (FACS with PI / CyQUANT); format: cell-based; conditions: for IC50: Homo sapiens, Embryonic stem cell
Experimental: In general, the presently disclosed embryotoxicity testing protocols comprise the following sequence of steps. Studies using embryoid bodies generally comprise: a) preparation of various concentrations of test solutions in culture medium or a desired solvent; b) preparation of a cell suspension by enzymatic digestion of human embryonic stem cell colonies; c) culturing the cell suspension for formation of embryoid bodies in the presence and absence of one or more test solutions, and incubation for several days (e.g., three days) in hanging drops; d) cultivation of the embryoid bodies in bacteriological petri dishes for several days (e.g., two days) under controlled conditions; e) transfer of the embryoid bodies into 96 well plates and incubation for several days (e.g., 10 days) in the presence of one or more test solutions; and f) detection of the viability of the embryoid bodies after 15 days by MTT assay, or fluorescent or luminescent method, and isolation of RNA for studying gene expression. Studies using human foreskin fibroblasts (HFF) generally comprise: a) preparation of various concentrations of test solutions in culture medium or a desired solvent; b) plating of HFF cells in 96 well plates in the presence or absence of one or more test solutions for 15 days, changing the media and test solutions every 2 days; and c) detection of the viability of HFF after 15 days by MTT assay, or fluorescent or luminescent method. Studies using human embryonic stem cells generally comprise: a) preparation of various concentrations of test solutions in culture medium or a desired solvent; b) preparation of hES colonies by manual passage in the presence and absence of one or more test solutions, and incubation for 15 days on matrigel coated plates changing the media and test solutions every 2 days; c) disruption of the colonies after 15 days with enzymes to form single cells; d) labeling of single cells with a fluorescently-labeled dye, such as propidium iodide (“PI”); and e) detection of the percentage viability with FACS as a measure of cytotoxicity. […]
After 2 hours incubation, 150 μl of assay medium containing the appropriate concentration of test chemical (150 μl volume contains 1.333× the final chemical concentration) was added. Appropriate blanks without the chemicals were used along with the test samples The cell cultures were incubated at 5% CO2 and 37° C. for 3 days. On day 3, test solution was removed with the care, so that the cell layer on the bottom of the wells was not disturbed. Next, 200 μl of freshly prepared test solution (final concentration/well as on day 0) was added, and the cell cultures were incubated at 5% CO2 and 37° C. for 3 days. This process was repeated on days 6, 9, and 12. Determination of cell growth inhibition was performed at day 15 of the assay using MTT reagent. Cytotoxicity for hES cells was calculated using flow cytometry. Briefly, cells were placed on matrigel coated plates along with different test compound concentrations. Media was replaced every 3 days along with the different test compound concentrations. At day 15, hES cells were collected by trypsinization, and after washing with PBS, the cells were incubated with PI for 10 minutes in the dark. Percent viability for various test compound concentrations was calculated using flow cytometry.
Cytotoxicity analysis of three cell types (hES, hEBs and HFF) was evaluated using the CyQUANT assay following compound treatment. All data were the mean of three independent experiments for each cell type. Data is represented as the mean±SE.

[3] = cited from earlier work
mouse ES cells = conditions: Table 4; from the EST (Genschow, et al., 2000); cited from earlier work
[4] = Table 5; cited from earlier work
[5] = tested on: 3T3 (mouse fibroblast cell line); conditions: Table 4; from the EST (Genschow, et al., 2000); cited from earlier work
[6] = 360 h, Table 3, mean of 3 experiments, day 15, read-out: IC50-hES
[7] = Table 4, CyQuant cell viability assay, read-out: Human EST IC50 - hES

## O=c1[nH]cc(F)c(=O)[nH]1 [5-Fluorouracil, 5-fluorouracil]
[1]; 1 μg/ml, day 5, FIG. 2A
  morphology of 5 day old EBs compared to control: significant change in the morphology
[2]; [6]
  IC50: 0.546 µg/mL (≈ 4.2 µM)
[2]; hES, 1 μg/ml, day 15, FIG. 3A
  survival percentage: 30%
[2]; hES, up to 0.01 μg/ml, FIG. 3A
  effect on cell viability: no major effect

## CS(=O)(=O)OCCCCOS(C)(=O)=O [Busulfan, busulfan]
[1]
  morphology of treated hEBs compared to controls: loss of compactness and a decrease in the size of the EBs
[3]
  Therap. range in human serum: <0.6 µg/mL
[3]; listed as busulfan
  Therap. range in human serum: less than 0.6 μg/ml
Mouse ES cells
  Mouse EST IC50 - mES: 2.1 µg/mL
[4]
  Effects on fetus: Reproductive
  General toxicity: Hematopoietic
[2]; [6]
  IC50: 2.1 ± 0.6 µg/mL (≈ 8.53 µM)
[2]; [7]
  IC50: 2.1 ± 0.6 µg/mL (≈ 8.53 µM)
[5]
  Mouse EST IC50 - 3T3: 4.8 µg/mL

## Cn1c(=O)c2c(ncn2C)n(C)c1=O [Caffeine, caffeine]
[1]; increasing dose (50 and 500 μg/ml), day 5, FIG. 2B
  morphology of 5 day old EBs: significant darkening of the cells
[4]
  General toxicity: Cardiac, CNS
[2]; [6]
  IC50: 110 ± 12.5 µg/mL (≈ 566 µM)
[2]; [7]
  IC50: 110 ± 12.5 µg/mL (≈ 566 µM)
[2]; hES, 500 μg/ml, FIG. 3B
  survival: about 10%

## NC(=O)NO [Hydroxyurea, hydroxyurea]
[1]
  morphology of treated hEBs compared to controls: loss of compactness and a decrease in the size of the EBs
[3]
  Therap. range in human serum: <9.88 µg/mL
Mouse ES cells
  Mouse EST IC50 - mES: 2.0 µg/mL
[2]; [6]
  IC50: 2.6 ± 0.2 µg/mL (≈ 34.2 µM)
[2]; [7]
  IC50: 2.6 ± 0.2 µg/mL (≈ 34.2 µM)
[5]
  Mouse EST IC50 - 3T3: 7.2 µg/mL

## COc1ccc2c(c1)c(CC(=O)O)c(C)n2C(=O)c1ccc(Cl)cc1 [Indomethacin, indomethacin]
[1]
  concentration required to elicit a similar morphological response (loss of compactness, decreased EB size): 100 μg/ml
Mouse ES cells
  Mouse EST IC50 - mES: 29 µg/mL
[4]
  General toxicity: Cardiac, Renal
[2]; [6]
  IC50: 73.4 ± 3.4 µg/mL (≈ 205 µM)
[2]; [7]
  IC50: 73.4 ± 3.4 µg/mL (≈ 205 µM)
[5]
  Mouse EST IC50 - 3T3: 27 µg/mL

## CC1(C)S[C@@H]2[C@H](NC(=O)Cc3ccccc3)C(=O)N2[C@H]1C(=O)O [Penicillin G, penicillin G]
[1]; 5000 μg/ml (highest dose), day 5, FIG. 2C
  morphology of 5 day old EBs: non-significant darkening
[1]
  concentration required to elicit a similar morphological response (loss of compactness, decreased EB size): 5000 μg/ml
[1]; up to 1000 μg/ml, day 5, FIG. 2C
  morphology of 5 day old EBs: no significant change
[3]
  Therap. range in human serum: 300 to 500 µg/mL
Mouse ES cells
  Mouse EST IC50 - mES: 2950 µg/mL
[4]
  Effects on fetus: None in Humans
  General toxicity: Hypersensitivity
[2]; Table 3, mean of 3 experiments, day 15
  IC50-hES: 2013 ± 23.5 µg/mL (≈ 6020 µM)
[2]; Table 4, CyQuant cell viability assay
  Human EST IC50 - hES: 2013 ± 23.5 µg/mL
[2]; hES, 5000 μg/ml (highest dose), FIG. 3C
  cell survival: 1-2%
[5]
  Mouse EST IC50 - 3T3: 1586 µg/mL
